Measured values published in US20230279020A9, “CARM1 INHIBITORS AND USES THEREOF” (Epizyme, Inc., priority 2013, published 2023).

What follows are compounds tested against Human CARM1 (PRMT4) (Homo sapiens (Human), UniProt Q86X55) (assay: CARM1 enzyme assay on peptide substrate (3H-SAM Flashplate)). Conditions: Biochemical potencies, classification codes; read-out: Biochem IC50.
Sequence of Human CARM1 (PRMT4) (Q86X55 other isoform, or with tags, fused parts or gaps isoform Q86X55-1): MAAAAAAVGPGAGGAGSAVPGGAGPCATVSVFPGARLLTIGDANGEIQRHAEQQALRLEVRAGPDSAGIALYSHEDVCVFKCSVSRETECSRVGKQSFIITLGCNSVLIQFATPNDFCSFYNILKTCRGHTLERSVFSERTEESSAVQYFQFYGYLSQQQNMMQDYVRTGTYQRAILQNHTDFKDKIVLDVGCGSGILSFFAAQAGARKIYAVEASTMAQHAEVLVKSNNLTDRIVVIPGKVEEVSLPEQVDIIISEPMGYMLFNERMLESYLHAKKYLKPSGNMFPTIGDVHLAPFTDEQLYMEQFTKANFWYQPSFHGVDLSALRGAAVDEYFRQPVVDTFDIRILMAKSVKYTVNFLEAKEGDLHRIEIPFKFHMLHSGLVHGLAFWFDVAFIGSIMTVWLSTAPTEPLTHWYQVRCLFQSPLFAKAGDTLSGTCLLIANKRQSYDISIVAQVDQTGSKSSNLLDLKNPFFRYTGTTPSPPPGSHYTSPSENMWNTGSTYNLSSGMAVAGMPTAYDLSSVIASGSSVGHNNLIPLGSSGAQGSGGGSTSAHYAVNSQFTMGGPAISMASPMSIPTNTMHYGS

SMILES	IC50 [nM]
CNCC(O)COc1cccc(-c2nc(N[C@@H]3CCOC3)c(C)c(N3CCCC4(CN(CC(F)F)C4)C3)n2)c1 (some centres unmarked) [Example 469-1a]	< 100
CNC[C@@H](O)COc1ccc(Cl)c(-c2nc(-c3c(C)noc3C)c(C)c(N3Cc4cnc(C)nc4C3)n2)c1 [Example 245-3]	< 100
CNC[C@@H](O)COc1ccc(Cl)c(-c2nc(-c3c(C)noc3C)c(C)c(N3CC4(CCCCO4)C3)n2)c1 [Example 290-3]	< 100
CNCC(O)COc1ccc(Cl)c(-c2nc(NCC3CCOC3)c(C)c(-c3c(C)noc3C)n2)c1 (centres unmarked) [Example 30-3]	< 100
CNCC(O)COc1cccc(-c2nc(-c3c(C)noc3C)c(C)c(N3CC(CO)(CNC(=O)N(C)C)C3)n2)c1 (centres unmarked) [Example 298-1a]	< 100
CNC[C@@H](O)COc1ccc(Cl)c(-c2nc(N[C@H]3C[C@@H](OC)C3)c(Cl)c(-c3c(C)noc3C)n2)c1 [Example 216-3]	< 100
CNCC(O)COc1cccc(-c2nc(NCCCN3CCCC3=O)cc(-c3cncnc3)n2)c1 (centres unmarked) [Example 50-1]	< 100
CNCC(O)COc1cccc(-c2nc(-c3ccncc3)cc(N(C)C3CCNCC3)n2)c1 (centres unmarked) [Example 669-1a]	< 100
CNCC(O)COc1cccc(-c2nc(-c3c(C)noc3C)c(C)c(N3CC4(CN(C(=O)N(C)C)C4)C3)n2)c1 (centres unmarked) [Example 309-1a]	< 100
CNCC(O)COc1cccc(-c2nc(-c3c(C)noc3C)c(C)c(N3CC[C@H](C(=O)N(C)C)C3)n2)c1 (some centres unmarked) [Example 162-1a]	< 100
CCO[C@@H]1CCC[C@@H]1Nc1nc(-c2cc(OC[C@H](O)CNC)ccc2Cl)nc(-c2c(C)noc2C)c1C [Example 253-3]	< 100
CNCC(O)COc1ccc(Cl)c(-c2nc(NC3CCOCC3)c(C)c(-c3c(C)nsc3C)n2)c1 (centres unmarked) [Example 97-3]	< 100
CNCC(O)COc1cccc(-c2nc(N(C)C3CCOCC3)cc(-n3cccn3)n2)c1 (centres unmarked) [Example 542-1a]	< 100
CNC[C@@H](O)COc1ccc(Cl)c(-c2nc(-c3c(C)noc3C)c(Cl)c(N3Cc4ccncc4C3)n2)c1 [Example 214-3]	< 100
CNC[C@@H](O)COc1ccc(Cl)c(-c2nc(N[C@H]3C[C@H](OC)C3)c(C)c(-c3c(C)noc3C)n2)c1 [Example 143-3]	< 100
CNC[C@@H](O)COc1ccc(Cl)c(-c2nc(N[C@H]3CCN(C)C[C@H]3F)c(Cl)c(-c3c(C)noc3C)n2)c1 [Example 208-3]	< 100
CNCC(O)COc1cccc(-c2nc(N[C@@H]3CCOC3)c(C)c(N3CCC(S(C)(=O)=O)CC3)n2)c1 (some centres unmarked) [Example 441-1a]	< 100
CCOC(=O)N1CCOC[C@@H]1CNc1nc(-c2cccc(OC[C@@H](O)CNC)c2)nc(-c2c(C)noc2C)c1C [Example 278-1a]	< 100
CNC[C@H](O)COc1ccc(Cl)c(-c2nc(-c3c(C)noc3C)c(C)c(N3Cc4cccnc4C3)n2)c1 [Example 92-3]	< 100
CC[C@@H]1CN(c2nc(-c3cccc(OCC(O)CNC)c3)nc(-c3c(C)noc3C)c2C)CCN1S(=O)(=O)CC (some centres unmarked) [Example 152-1a]	< 100
CNCC(O)COc1cccc(-c2nc(NC3CCCN(S(C)(=O)=O)C3)c(C)c(-c3c(C)noc3C)n2)c1 (centres unmarked) [Example 198-1a]	< 100
CNCC(O)COc1cc(Cl)cc(-c2nc(C(=O)OC)cc(N(C)C3CCOCC3)n2)c1 (centres unmarked) [Example 623-1a]	< 100
CNC[C@@H](O)COc1ccc(Cl)c(-c2nc(N[C@H]3C[C@@H](OC)C3)c(C)c(-c3c(C)noc3C)n2)c1 [Example 144-3]	< 100

SMILES	IC50 [nM]
CNCC(O)COc1cccc(-c2nc(N[C@@H]3CCOC3)c(C)c(N3CC[C@H](N(C)C)C3)n2)c1 (some centres unmarked) [Example 368-1a]	< 100
CNCC(O)COc1cccc(-c2nc(-c3ccc4c(c3)OCCO4)cc(N(C)CCC#N)n2)c1 (centres unmarked) [Example 48-1]	< 100
CNCC(O)COc1cccc(-c2nc(-c3cnc4ncccn34)cc(N(C)C3CCOCC3)n2)c1 (centres unmarked) [Example 489-1a]	< 100
CNCC(O)COc1cccc(-c2nc(-c3c(C)noc3C)cc(N3CCN(C(=O)OC)CC3)n2)c1 (centres unmarked) [Example 81-1a]	< 100
CNCC(O)COc1cccc(-c2nc(-c3c(C)noc3C)cc(N3CCN(CCF)[C@@H](C)C3)n2)c1 (some centres unmarked) [Example 103-1a]	< 100
CNCC(O)COc1cccc(-c2nc(-c3c(C)noc3C)cc(N3CCN(C)[C@H](C)C3)n2)c1 (some centres unmarked) [Example 175-1a]	< 100
CCOC(=O)N1CCOC[C@@H]1CNc1nc(-c2cccc(OC[C@H](O)CNC)c2)nc(-c2c(C)noc2C)c1C [Example 277-1a]	< 100
CNC[C@@H](O)COc1ccc(Cl)c(-c2nc(-c3c(C)noc3C)c(C)c(N3Cc4cc(OC)cnc4C3)n2)c1 [Example 232-3]	< 100
CNCC(O)COc1cccc(-c2cc(N(C)C3CCOCC3)nc(-c3cnc4[nH]ccc4c3)n2)c1 (centres unmarked) [Example 16-2]	< 100
CNC[C@@H](O)COc1ccc(Cl)c(-c2nc(-c3c(C)noc3C)c(C)c(N3CCC4(CC3)CN(C(=O)OC)C4)n2)c1 [Example 115-3]	< 100
CNCC(O)COc1cccc(-c2nc(NC3CCOC3)c(C)c(N3CCN4C(=O)OC[C@@H]4C3)n2)c1 (some centres unmarked) [Example 454-1a]	< 100
CCOC(=O)N1CCOC[C@@H]1CNc1nc(-c2cc(OC[C@@H](O)CNC)ccc2Cl)nc(-c2c(C)noc2C)c1C [Example 42-3]	< 100
CNCC(O)COc1cccc(-c2nc(-c3c(C)noc3C)cc(N3CCN(C(=O)N(C)C)CC3)n2)c1 (centres unmarked) [Example 120-1a]	< 100
CNCC(O)COc1cccc(-c2cc(N(C)C3CCOCC3)nc(C3CC3)n2)c1 (centres unmarked) [Example 4-2]	< 100
CNCC(O)COc1cccc(-c2nc(NCC3(N4CC(F)(F)C4)CCOCC3)c(C)c(-c3c(C)noc3C)n2)c1 (centres unmarked) [Example 302-1a]	< 100
CNC[C@@H](O)COc1ccc(Cl)c(-c2nc(N[C@H]3CO[C@H](C)C3)c(Cl)c(-c3c(C)noc3C)n2)c1 [Example 201-3]	< 100
CNCC(O)COc1cccc(-c2nc(NC3CC3)c(C)c(-c3c(C)noc3C)n2)c1 (centres unmarked) [Example 293-1a]	< 100
CNCC(O)COc1cccc(-c2nc(N[C@@H]3CCOC3)c(C)c(N3CCC[C@@H](O)C3)n2)c1 (some centres unmarked) [Example 358-1a]	< 100
CCc1nc(-c2cccc(OCC(O)CNC)c2)cc(N(C)C2CCOCC2)n1 (centres unmarked) [Example 2-2]	< 100
CNCC(O)COc1cc(Cl)cc(-c2nc(-c3c(C)noc3C)cc(-c3c(C)noc3C)n2)c1 (centres unmarked) [Example 4-1a]	< 100
CNC[C@@H](O)COc1ccc(Cl)c(-c2nc(N[C@H]3C[C@@H](C)O[C@@H](C)C3)c(C)c(-c3c(C)noc3C)n2)c1 [Example 172-3]	< 100
CNCC(O)COc1cccc(-c2nc(N[C@@H]3CCOC3)c(C)c(N3CCN(C)C(=O)C3)n2)c1 (some centres unmarked) [Example 435-1a]	< 100
CNCC(O)COc1cccc(-c2nc(NC3CCN(C4COC4)C3)c(C)c(-c3c(C)noc3C)n2)c1 (centres unmarked) [Example 240-1a]	< 100

SMILES	IC50 [nM]
CNCC(O)COc1cccc(-c2nc(-c3ccc(S(C)(=O)=O)cc3)cc(N(C)C3CCOCC3)n2)c1 (centres unmarked) [Example 499-1a]	< 100
CNC[C@@H](O)COc1ccc(Cl)c(-c2nc(-c3c(C)noc3C)c(C)c(N(C)[C@H]3CC[C@@H](OC)C3)n2)c1 [Example 213-3]	< 100
CNCC(O)COc1cccc(-c2nc(-c3c(C)noc3C)c(C)c(N3CCO[C@@H](CN(C)S(C)(=O)=O)C3)n2)c1 (some centres unmarked) [Example 150-1a]	< 100
CNCC(O)COc1cc(Cl)cc(-c2nc(N[C@@H]3CCOC3)cc(-c3c(C)noc3C)n2)c1 (some centres unmarked) [Example 10-1a]	< 100
CNC[C@H](O)COc1cccc(-c2nc(-c3cnc4cnccn34)cc(N(C)C3CCOCC3)n2)c1 [Example 486-1a]	< 100
CNCC(O)COc1cccc(-c2nc(NC3CC(C(=O)OC)C3)cc(-c3c(C)noc3C)n2)c1 (centres unmarked) [Example 45-1a]	< 100
CNCC(O)COc1cccc(-c2nc(-c3c(C)noc3C)cc(N3C[C@@H]4C[C@H]3CN4C(=O)OC)n2)c1 (some centres unmarked) [Example 94-1a]	< 100
CNCC(O)COc1cccc(-c2nc(NC)cc(-c3c(C)noc3C)n2)c1 (centres unmarked) [Example 27-1a]	< 100
CCOC(=O)c1sc(-c2cc(N(C)C3CCOCC3)nc(-c3cccc(OCC(O)CNC)c3)n2)nc1C (centres unmarked) [Example 565-1a]	< 100
CNC[C@@H](O)COc1ccc(Cl)c(-c2nc(N[C@H]3C[C@@H](C)O[C@@H](C)C3)c(Cl)c(-c3c(C)noc3C)n2)c1 [Example 173-3]	< 100
CNCC(O)COc1cccc(-c2nc(-c3c(C)noc3C)c(C)c(N3CCO[C@@H](C)C3)n2)c1 (some centres unmarked) [Example 209-1a]	< 100
CNCC(O)COc1cccc(-c2nc(NC3CCN(C(=O)N(C)C)CC3)c(C)c(-c3c(C)noc3C)n2)c1 (centres unmarked) [Example 244-1a]	< 100
CCOC(=O)N1CC[C@@H](Nc2nc(-c3cc(OC[C@H](O)CNC)ccc3Cl)nc(-c3c(C)noc3C)c2C)C1 [Example 112-3]	< 100
CCOC(=O)N1CCC[C@@H]1CNc1nc(-c2cc(OC[C@@H](O)CNC)ccc2Cl)nc(-c2c(C)noc2C)c1C [Example 49-3]	< 100
CNCC(O)COc1cccc(-c2nc(-c3c(C)noc3C)cc(N(C)c3cnc(C)nc3)n2)c1 (centres unmarked) [Example 61-1a]	< 100
CNCC(O)COc1cc(OC)cc(-c2nc(-c3cnc4cnccn34)cc(N(C)C3CCOCC3)n2)c1 (centres unmarked) [Example 492-1a]	< 100
CNCC(O)COc1cccc(-c2nc(-c3ccc(OC)c(OC)c3)cc(N(C)CCC#N)n2)c1 (centres unmarked) [Example 49-1]	< 100
CNCC(O)COc1cccc(-c2nc(N[C@H]3C[C@H](C(C)(C)O)C3)c(C)c(-c3c(C)noc3C)n2)c1 (some centres unmarked) [Example 231-1a]	< 100
CNCC(O)COc1cccc(-c2nc(N[C@@H]3CCOC3=O)c(C)c(-c3c(C)noc3C)n2)c1 (some centres unmarked) [Example 291-1a]	< 100
CNC[C@@H](O)COc1ccc(Cl)c(-c2nc(N[C@@H]3CCN(C)C[C@@H]3F)c(Cl)c(-c3c(C)noc3C)n2)c1 [Example 210-3]	< 100
CNCC(O)COc1ccc(C)c(-c2nc(NC3CCN(C(=O)OC)CC3)c(C)c(-c3c(C)noc3C)n2)c1 (centres unmarked) [Example 125-3]	< 100
CNCC(O)COc1cccc(-c2nc(N[C@@H]3CCOC3)c(C)c(N3CCC(OC)CC3)n2)c1 (some centres unmarked) [Example 370-1a]	< 100
